v0 and v0/CYP data for one compound are collected here from PMC5679629, “Flavin-containing monooxygenase 3 (FMO3) role in busulphan metabolic pathway” (PLoS ONE, 2017).

Assay in all cases: THT disappearance with recombinant cDNA-expressed enzyme microsomes
What all share (type): in vitro ADME
Common to all, as to details: 25μM THT, 35pmol CYP/mL

One series deals with T1, CYP2B6 (Homo sapiens, UniProt P20813).
T1 construct: purchased BD Biosciences; host or cells: baculovirus infected insect cells
T1 sequence (P20813 1-491): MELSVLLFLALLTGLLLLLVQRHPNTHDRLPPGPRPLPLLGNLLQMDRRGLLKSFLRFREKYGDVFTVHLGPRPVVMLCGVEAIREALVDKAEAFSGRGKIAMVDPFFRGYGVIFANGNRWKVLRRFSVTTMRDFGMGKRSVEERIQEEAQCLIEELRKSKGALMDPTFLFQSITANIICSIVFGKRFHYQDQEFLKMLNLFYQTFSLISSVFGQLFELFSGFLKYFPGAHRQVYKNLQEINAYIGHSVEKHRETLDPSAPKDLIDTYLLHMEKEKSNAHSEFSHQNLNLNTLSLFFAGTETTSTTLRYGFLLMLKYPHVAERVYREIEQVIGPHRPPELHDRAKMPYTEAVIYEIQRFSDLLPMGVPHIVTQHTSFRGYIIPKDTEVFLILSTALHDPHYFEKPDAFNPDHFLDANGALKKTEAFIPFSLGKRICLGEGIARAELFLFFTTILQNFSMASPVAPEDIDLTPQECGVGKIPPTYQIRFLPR
How it is done:
(§1) To identify the enzymes involved in Bu metabolism, 11 microsomal batches (BD Biosciences, Stockholm, Sweden), each containing a separate cDNA-expressed enzyme, were incubated with 25μM THT. The microsomes contained FMO3, CYP1A1, CYP1A2, CYP2B6, CYP2C8, CYP2C9, CYP2C19, CYP2D6, CYP2E1, CYP3A4 or CYP4A11. Time curves (0, 5, 15, 30 and 60min) were performed at a concentration of 0.35mg protein /mL for FMO3 and 35pmol CYP/mL for the CYP enzymes. The recombinant enzymes were produced from human cDNA expressing each of them using baculovirus expression system. Baculovirus infected insect cells were used to prepare these microsomes.
(§2) Incubations were performed in triplicate and negative controls (excluding NADPH, microsomes, THT or by terminating the incubations before the addition of NADPH) were run in parallel.
(§3) To measure THT and the secondary metabolite, sulfolane, the reactions were terminated by adding dichloromethane. Samples (180μL) were added to 10μM nicotine (20μL, Merck, Hoherbrunn, Germany), used as an internal standard, before extraction. The matrix was extracted by liquid-liquid extraction with dichloromethane (equal volumes, 200μL) after 30 sec of high speed vortexing. After extraction and centrifugation at 16000 g for 10 min, the organic phase was transferred into GC-MS tubes. […] Samples (180μL) were added to 10 μM of 3-methylsulfolane (20μL, TCI, Tokyo, Japan), used as an internal standard. The matrix was lyophilized (< 1 mbar at 40°C under N2 stream) to dryness, the residue was dissolved in 10 μL water and 200 μL of ethyl acetate was added for extraction. Samples were vortexed for 30 sec at high speed and centrifuged at 16000 g for 10 min. The organic phase was transferred to GC-MS tubes.
(§4) Concentrations of THT and its metabolites were measured using GC-MS [18] after validation for use with microsomal incubations according to the international guidelines.

For the next series, the target named is T2, CYP2E1 (Homo sapiens, UniProt P05181).
T2 construct: purchased BD Biosciences; host or cells: baculovirus infected insect cells
How it is done:
as §1, §2, §3, §4

The target of the next series is T3, CYP2D6 (Homo sapiens, UniProt P10635).
T3 construct: purchased BD Biosciences; host or cells: baculovirus infected insect cells
On the procedure:
as §1, §2, §3, §4

A further series has as its target T4, CYP4A11 (Homo sapiens, UniProt Q02928).
T4 construct: purchased BD Biosciences; host or cells: baculovirus infected insect cells
T4 sequence (Q02928 5-519): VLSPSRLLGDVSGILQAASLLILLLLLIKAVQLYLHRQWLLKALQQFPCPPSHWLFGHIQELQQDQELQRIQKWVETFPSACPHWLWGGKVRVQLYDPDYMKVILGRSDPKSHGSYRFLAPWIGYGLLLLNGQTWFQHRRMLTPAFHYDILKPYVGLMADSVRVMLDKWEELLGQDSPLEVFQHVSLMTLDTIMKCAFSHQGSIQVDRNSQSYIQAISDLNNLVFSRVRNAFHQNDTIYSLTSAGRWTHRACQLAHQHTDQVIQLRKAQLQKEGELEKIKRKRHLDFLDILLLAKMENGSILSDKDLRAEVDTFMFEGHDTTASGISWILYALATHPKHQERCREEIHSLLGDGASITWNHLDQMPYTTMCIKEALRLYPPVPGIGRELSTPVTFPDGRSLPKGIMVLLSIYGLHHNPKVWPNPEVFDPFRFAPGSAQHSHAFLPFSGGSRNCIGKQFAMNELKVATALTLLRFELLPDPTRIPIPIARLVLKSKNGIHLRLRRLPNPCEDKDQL
How it is done:
as §1, §2, §3, §4

Another series has as its target T5, CYP2C19 (Homo sapiens, UniProt P33261).
T5 construct: purchased BD Biosciences; host or cells: baculovirus infected insect cells
How it is done:
as §1, §2, §3, §4

The next series concerns the target T6, CYP1A2 (Homo sapiens, UniProt P05177).
T6 construct: purchased BD Biosciences; host or cells: baculovirus infected insect cells
T6 sequence (P05177 1-516): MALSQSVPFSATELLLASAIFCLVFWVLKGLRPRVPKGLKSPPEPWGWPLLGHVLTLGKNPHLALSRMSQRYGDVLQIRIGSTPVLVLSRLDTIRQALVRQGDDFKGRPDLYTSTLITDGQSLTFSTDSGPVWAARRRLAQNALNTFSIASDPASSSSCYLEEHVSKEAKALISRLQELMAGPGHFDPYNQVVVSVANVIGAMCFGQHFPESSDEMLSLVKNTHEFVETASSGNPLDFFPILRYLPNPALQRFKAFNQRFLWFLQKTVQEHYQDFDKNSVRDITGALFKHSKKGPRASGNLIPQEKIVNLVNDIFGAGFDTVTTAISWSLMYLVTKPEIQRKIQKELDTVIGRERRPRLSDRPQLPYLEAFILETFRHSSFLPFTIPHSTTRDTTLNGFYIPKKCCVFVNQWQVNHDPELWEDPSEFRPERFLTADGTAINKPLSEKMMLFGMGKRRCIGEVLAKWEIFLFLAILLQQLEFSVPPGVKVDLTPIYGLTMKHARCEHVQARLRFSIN
On the procedure:
as §1, §2, §3, §4

For the next series, the target named is T7, CYP2C9 (Homo sapiens, UniProt P11712).
T7 construct: purchased BD Biosciences; host or cells: baculovirus infected insect cells
On the procedure: as §1, §2, §3, §4

The next series concerns the target T8, CYP3A4 (Homo sapiens, UniProt P08684).
T8 construct: purchased BD Biosciences; host or cells: baculovirus infected insect cells
How it is done:
as §1, §2, §3, §4

Molecules are shown by their SMILES.

T2 sequence (P05181 whole entry): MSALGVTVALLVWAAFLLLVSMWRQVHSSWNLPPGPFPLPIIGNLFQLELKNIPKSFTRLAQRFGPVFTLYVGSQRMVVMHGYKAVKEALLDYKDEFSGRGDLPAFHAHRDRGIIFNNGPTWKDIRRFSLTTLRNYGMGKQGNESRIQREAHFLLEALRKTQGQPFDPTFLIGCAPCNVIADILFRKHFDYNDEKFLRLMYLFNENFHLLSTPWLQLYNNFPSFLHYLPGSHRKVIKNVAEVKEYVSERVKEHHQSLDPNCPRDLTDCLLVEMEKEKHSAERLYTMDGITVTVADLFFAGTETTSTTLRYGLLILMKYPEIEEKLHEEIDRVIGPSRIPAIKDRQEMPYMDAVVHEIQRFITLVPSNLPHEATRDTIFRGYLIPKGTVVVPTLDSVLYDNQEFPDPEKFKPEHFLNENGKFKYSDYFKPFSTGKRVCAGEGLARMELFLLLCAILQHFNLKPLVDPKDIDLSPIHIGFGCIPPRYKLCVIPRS
T5 sequence (P33261 whole entry): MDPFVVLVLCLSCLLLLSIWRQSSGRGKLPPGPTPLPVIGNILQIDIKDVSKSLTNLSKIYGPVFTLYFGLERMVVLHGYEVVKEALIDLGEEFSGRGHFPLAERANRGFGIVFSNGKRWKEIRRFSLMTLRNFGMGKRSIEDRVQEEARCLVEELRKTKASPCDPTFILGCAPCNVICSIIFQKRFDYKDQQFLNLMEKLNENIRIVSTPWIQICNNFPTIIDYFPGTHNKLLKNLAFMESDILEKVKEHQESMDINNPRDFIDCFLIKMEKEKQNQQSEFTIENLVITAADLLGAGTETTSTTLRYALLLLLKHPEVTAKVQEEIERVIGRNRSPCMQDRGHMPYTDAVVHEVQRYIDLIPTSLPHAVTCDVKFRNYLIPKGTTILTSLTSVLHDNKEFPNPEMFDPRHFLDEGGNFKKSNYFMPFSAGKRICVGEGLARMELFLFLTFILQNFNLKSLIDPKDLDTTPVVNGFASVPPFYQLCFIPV
T3 sequence (P10635 whole entry): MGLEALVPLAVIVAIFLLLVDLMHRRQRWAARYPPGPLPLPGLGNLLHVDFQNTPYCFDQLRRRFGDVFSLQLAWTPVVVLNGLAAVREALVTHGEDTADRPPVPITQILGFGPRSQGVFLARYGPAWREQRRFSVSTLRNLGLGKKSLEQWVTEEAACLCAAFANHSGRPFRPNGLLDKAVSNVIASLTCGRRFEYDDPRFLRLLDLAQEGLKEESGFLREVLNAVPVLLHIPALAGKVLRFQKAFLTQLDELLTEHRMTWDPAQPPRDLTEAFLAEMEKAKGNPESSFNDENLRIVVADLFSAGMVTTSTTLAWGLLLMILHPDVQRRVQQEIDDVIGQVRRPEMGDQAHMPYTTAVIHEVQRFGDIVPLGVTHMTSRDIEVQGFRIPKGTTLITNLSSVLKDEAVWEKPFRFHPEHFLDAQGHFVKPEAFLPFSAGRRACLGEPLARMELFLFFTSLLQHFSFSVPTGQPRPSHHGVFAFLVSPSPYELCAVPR
T7 sequence (P11712 whole entry): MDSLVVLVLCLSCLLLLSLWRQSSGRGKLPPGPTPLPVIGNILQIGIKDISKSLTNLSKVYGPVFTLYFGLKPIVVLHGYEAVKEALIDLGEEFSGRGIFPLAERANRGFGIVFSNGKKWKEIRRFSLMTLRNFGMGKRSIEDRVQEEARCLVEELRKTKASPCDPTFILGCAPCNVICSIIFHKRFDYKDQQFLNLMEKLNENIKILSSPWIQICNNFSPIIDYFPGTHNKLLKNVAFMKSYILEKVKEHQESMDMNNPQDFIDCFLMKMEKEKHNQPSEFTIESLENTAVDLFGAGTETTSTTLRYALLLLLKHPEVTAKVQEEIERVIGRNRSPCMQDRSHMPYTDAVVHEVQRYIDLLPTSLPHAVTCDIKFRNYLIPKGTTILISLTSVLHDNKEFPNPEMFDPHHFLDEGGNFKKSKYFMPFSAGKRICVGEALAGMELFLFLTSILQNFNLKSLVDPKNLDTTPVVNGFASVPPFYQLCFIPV
T8 sequence (P08684 whole entry): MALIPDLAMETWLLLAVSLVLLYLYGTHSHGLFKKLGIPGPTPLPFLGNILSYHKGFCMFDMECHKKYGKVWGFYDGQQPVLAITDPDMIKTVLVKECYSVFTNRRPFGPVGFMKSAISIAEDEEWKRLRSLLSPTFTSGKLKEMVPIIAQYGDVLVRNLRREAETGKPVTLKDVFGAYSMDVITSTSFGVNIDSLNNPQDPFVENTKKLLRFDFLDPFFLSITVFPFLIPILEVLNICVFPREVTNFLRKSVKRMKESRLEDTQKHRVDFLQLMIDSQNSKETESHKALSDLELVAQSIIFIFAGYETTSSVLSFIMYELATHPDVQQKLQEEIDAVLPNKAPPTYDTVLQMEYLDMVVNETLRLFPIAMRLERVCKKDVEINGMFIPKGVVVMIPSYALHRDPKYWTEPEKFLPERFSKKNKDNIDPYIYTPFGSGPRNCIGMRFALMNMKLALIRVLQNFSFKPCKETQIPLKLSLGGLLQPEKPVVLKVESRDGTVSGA

On to `C1CCSC1` [THT, tetrahydrothiophene], for which the v0 at CYP2B6 is 1.76 nmol/min/mL; on CYP2E1 it was 1.41 nmol/min/mL; on CYP2D6, 2.24 nmol/min/mL; on CYP4A11, 2.52 nmol/min/mL; at CYP2C19, 1.51 nmol/min/mL; on CYP1A2, 1.24 nmol/min/mL. The results for the v0 on CYP2C9 and on CYP3A4 were 1.64 nmol/min/mL and 3.66 nmol/min/mL, respectively. Further, the v0/CYP amounted to 0.05 nmol/min/pmol CYP at CYP2B6; 0.04 nmol/min/pmol CYP at CYP2E1; 0.06 nmol/min/pmol CYP on CYP2D6; 0.07 nmol/min/pmol CYP at CYP4A11; 0.04 nmol/min/pmol CYP on CYP2C19; 0.04 nmol/min/pmol CYP at CYP1A2. Further, the v0/CYP at CYP2C9 amounted to 0.05 nmol/min/pmol CYP; on CYP3A4, 0.11 nmol/min/pmol CYP.
